Substitutions are numbered along the chain they refer to.
How the values were obtained:
PKG-1α [1] = target: T1, PKG-1α (Homo sapiens, UniProt Q13976, Y247F); assay: PKG catalytic activity, Michaelis-Menten kinetics for cGMP; format: biochemical; design: made in house; host or cells: HEK-293T; conditions: Y247F mutant upon SIN-1 treatment
T1 sequence (Q13976 2-671 Y247F): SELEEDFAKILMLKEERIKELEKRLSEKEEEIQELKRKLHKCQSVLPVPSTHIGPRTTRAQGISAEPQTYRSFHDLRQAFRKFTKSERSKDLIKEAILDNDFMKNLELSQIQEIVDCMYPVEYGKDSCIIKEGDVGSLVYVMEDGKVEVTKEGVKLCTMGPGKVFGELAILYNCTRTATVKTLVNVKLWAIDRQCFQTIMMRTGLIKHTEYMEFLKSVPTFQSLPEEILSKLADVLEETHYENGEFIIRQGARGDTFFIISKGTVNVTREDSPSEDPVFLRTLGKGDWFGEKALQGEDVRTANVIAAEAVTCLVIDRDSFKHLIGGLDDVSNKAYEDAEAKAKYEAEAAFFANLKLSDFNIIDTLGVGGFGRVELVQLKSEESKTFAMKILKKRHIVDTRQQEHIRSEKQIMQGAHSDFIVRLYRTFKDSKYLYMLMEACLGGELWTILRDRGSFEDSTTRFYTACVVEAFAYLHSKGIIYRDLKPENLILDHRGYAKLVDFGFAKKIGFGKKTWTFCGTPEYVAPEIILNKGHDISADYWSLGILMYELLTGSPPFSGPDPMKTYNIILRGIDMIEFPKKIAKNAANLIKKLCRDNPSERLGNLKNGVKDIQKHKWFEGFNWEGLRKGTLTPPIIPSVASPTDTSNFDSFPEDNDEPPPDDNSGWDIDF
Description: (§1) Total PKG activity was determined using a non-radioactive immunoassay in cell lysates, according to the manufacturer's directions. Briefly, protein samples were diluted in kinase reaction buffer containing Mg^2+ and ATP (125 μM) in the presence or absence of 8-Br cGMP (10 μM) and incubated in a 96 well plate pre-coated with a PKG substrate containing threonine residues phosphorylated by PKG.
(§2) After incubation for 30 min at 30° C. to allow the phosphorylation of the bound substrate, an HRP conjugated anti-phosphothreonine specific antibody was added to convert a chromogenic substrate to a colorimetric substrate that was subsequently read spectrophotometrically at 450 nm. The change in absorbance reflected the relative activity of PKG in the sample. The results were reported as pmols of phosphate incorporated into the GST-G substrate fusion protein by active PKG in the sample in the presence or absence of cGMP (10 μM) per minute at 30° C. per μg of protein (pmol/min/μg). […] The kinetic constants were determined using nonlinear regression (curve fit) analysis (GraphPad Prism Software Inc.).
(§3) To determine the Michaelis-Menten constant (Km) for cGMP, the kinase assay was performed, as mentioned above; however, the cGMP concentration was titrated from 0-10 μM, while the ATP concentration remained constant at 125 μM.

PKG-1α [2] = target: T2, PKG-1α (Homo sapiens, UniProt Q13976); assay: as above; format: biochemical; design: an expression plasmid containing a full length WT-PKG-1α cDNA; made in house; host or cells: HEK-293T; the results paragraph b304 says PASMC
T2 sequence (Q13976 2-671): T1 sequence (Q13976 2-671 Y247F) with F246Y
Description: as §1, §2, §3

With “3-morpholinosydnonimine N-ethylcarbamide [SIN-1]” the “change of Michaelis-Menten constant (Km) for cGMP” value (PKG-1α [1]) was “no significant change”, the “Vmax of the reaction” value (PKG-1α [2]; WT PKG-1α after SIN-1 challenge, ATP 125 μM, cGMP 0-10 μM) was 0.28 pmol/min/µg and the Km (PKG-1α [2]; WT-PKG-1α upon SIN-1 treatment, read-out: Michaelis-Menten constant (Km) for cGMP) was 8.91 nM.

— patent publication US9551711B2, “Compositions and methods for detecting nitration of PKG-1α and methods of use thereof” (Augusta University Research Institute, Inc., priority 2013, dated 2017)
